These results are taken from patent US5700776A, “Medicaments comprising glicentin as active ingredient” (Nisshin Flour Milling Co., Ltd., priority 1992, dated 1997).

For one data set, the system named is male MALB/c mice. The data set is described as follows: Intraperitoneal administration to mice, observation of appearance. It is filed as in vivo. Conditions: 10 mg/kg intraperitoneally, male MALB/c mice (6 weeks age).
A further data set has as its system arginine loaded dogs. Put plainly: Infusion of glicentin and glucagon into the pancreatic artery of arginine loaded dogs; plasma hormones and blood glucose. The data set is classed as in vivo, dog. Conditions: glicentin 100 pmol or 400 pmol infused into pancreatic artery for 10 minutes.

Description for arginine loaded dogs: Healthy mongrel dogs weighing 13 to 17 kg were subjected to the test after an overnight fast (A. Ohneda et al., Horm. Metab. Res., 9, 447-452 (1977)).
The animals were anesthetized with sodium pentobarbital (Nembutal®) and their abdomens were opened. […] After the operation was completed, saline solution containing 0.5% arginine was infused into the pancreatic artery at a constant rate of 2 ml/min through the cannula using an infusion pump. […] 4 ml portions of blood samples for hormone assay were collected at various intervals into a glass tube containing 1000 KIU aprotinine and 10 mg EDTA.
The plasma insulin was measured in accordance with a known method mentioned in C.
The blood glucose was measured for blood drawn from the femoral artery by the glucose oxidase method using a test kit for the determination of blood glucose (available from Wako Pure Chemical Industries, Japan under the trade name of "Glucose B-Test Wako").

“human glicentin (natural type): peptide of 69 amino acid residues, SEQ ID NO:2, produced by genetic engineering in E. coli”: the change in appearance entry with male MALB/c mice is given as “no change in appearance”. The “insulin secretion (plasma insulin, IRI)” value in the data set on arginine loaded dogs (anesthetized dogs under 0.5% arginine infusion) is “stimulates insulin secretion”. Further, the “glucagon level (IRG(G 21))” value in the data set with arginine loaded dogs (antiserum G 21) is on record as “not increased”. Also, the blood glucose levels entry in the data set on arginine loaded dogs (blood from femoral artery, glucose oxidase method) is on record as “no change in blood glucose levels”.
